Assay results from patent US20100267954A1, “PROCESS FOR THE PURIFICATION OF PALIPERIDONE” (DIPHARMA FRANCIS S.r.l., priority 2009, published 2010).
Structures can show the parent of a compound that is named as a salt.

What was measured:
[1] = solubility in water (descriptive statement); assay type: physicochemical; details: crystalline solid
[2] = compared with Form II, hydrate form and solvate form; per EMEA document; cited from earlier work

Row | SMILES | solubility in water [1] | thermodynamic stability among crystalline forms [2]
1 | Cc1nc2n(c(=O)c1CCN1CCC(c3noc4cc(F)ccc34)CC1)CCCC2O (racemic) [paliperidone Form I, (±)-3-[2-[4-(6-fluoro-1,2-benzoisoxazol-3-yl)-1-piperidinyl]ethyl-6,7,8,9-tetrahydro-9-hydroxy-2-methylpropanediol-4H-pyrido[1,2-a]pyrimidin-4-one] | poorly soluble in water | most thermodynamically stable
2 | Cc1nc2n(c(=O)c1CCN1CCC(c3noc4cc(F)ccc34)CC1)CCCC2O (stereo not drawn) [paliperidone hydrochloride, 3-[2-[4-(6-fluoro-1,2-benzoisoxazol-3-yl)-1-piperidinyl]ethyl-6,7,8,9-tetrahydro-9-hydroxy-2-methyl-4H-pyrido[1,2-a]-pyrimidin-4-one hydrochloride] | poorly soluble in water | –
